Values of other authors in US20140377346A1, “BOSENTAN CONTROLLED RELEASE ORAL PREPARATION” (HANALL BIOPHARMA CO., LTD., priority 2012, published 2014).
Where two headings read alike, the source gives them in different places.

COc1ccccc1Oc1c(NS(=O)(=O)c2ccc(C(C)(C)C)cc2)nc(-c2ncccn2)nc1OCCO [bosentan, 4-tert-butyl-N-[6-(2-hydroxy-ethoxy)-5-(2-methoxy-phenoxy)-2-(pyrimidin-2-yl)-pyrimidin-4-yl]-benzenesulfonamide]
water needed to dissolve 0.1 mg of bosentan (pH 1.0): ≥ 100 mL
water needed to dissolve 0.1 mg of bosentan (pH 5.0): ≥ 50 mL
water needed to dissolve 0.1 mg of bosentan (pH 7.5): approximately 0.3 ml
